Among the data in PubChem BioAssay (NCI) are TGI values, retold here.

What all share (assay): NCI tumour cell line growth inhibition, 48 h
For experiment [1], the system named is PC-3 prostate.
Experiment [2] concerns MALME-3M melanoma.
For experiment [3], the system named is SF-268 CNS.
In experiment [4] the test system is EKVX NSCLC.
In experiment [5] the test system is OVCAR-4 ovarian.
The subject of experiment [6] is UACC-257 melanoma.
Experiment [7] has as its system UACC-62 melanoma.
The subject of experiment [8] is LOX IMVI melanoma.
For experiment [9], the system named is SF-295 CNS.
For experiment [10], the system named is HCT-15 colon.
Experiment [11] deals with 786-0 renal.
The subject of experiment [12] is NCI-H522 lung.

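Test compounds were applied to cells in 96-well plates for 48 hours at 5 doses. TGI marks complete inhibition of growth.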 Where a SMILES comes first, the peptide text is derived from it. [ ]: non-standard residue; d: D form. The star is where a group is joined. ξ: configuration not given here. ξD = NC(CC(=O)O)C(=O)O; Ac3c = NC1(C(=O)O)CC1; Boc = CC(C)(C)OC(=O)*; OtBu = CC(C)(C)O*

On to `COc1ccc2c(-c3ccc(OCCN(C)C)cc3)c(Oc3ccc(Cl)cc3)c(=O)oc2c1`, for which the TGI is 19.7 µM in experiment [1]; 3.48 µM in experiment [2]; 32.9 µM in [3]; 26.2 µM in experiment [4]; more than 95.7 µM in [5]; 3.75 µM in experiment [6]. Also, the TGI is 7.52 µM in experiment [7]; 4.3 µM in experiment [8]; 5.42 µM in experiment [9]; 15.5 µM in experiment [10]; 6.32 µM in experiment [11]; 12.1 µM in [12].

As for `CCOC(=O)/C(C#N)=C(/NNc1ccccc1)c1ccncc1C(=O)O`, the TGI in [1], in experiment [2], in experiment [3], in experiment [4], in [5] and in experiment [6] was more than 100 µM throughout. The TGI in [7], in experiment [8], in experiment [9], in [10], in experiment [11] and in experiment [12] was more than 100 µM each time.

On to `COc1ccc(/C(=N/Nc2nc3ccccc3[nH]2)C(=O)O)cc1`, for which the TGI in experiment [1], in experiment [2], in experiment [3], in experiment [4], in experiment [5] and in [6] was more than 100 µM in each case. Besides, the TGI in experiment [7], in experiment [8], in experiment [9], in experiment [10], in experiment [11] and in [12] was more than 100 µM in each case.

In the case of `CC1(C)CCCCCCCCCC(C)(CCCCCCCCCCCCO)C1=O` (configuration not stated), the TGI in experiment [1] came to 32.6 µM; in [2], 30.6 µM; in [3], 32 µM; in experiment [4], 34.8 µM; in experiment [5], 32.7 µM; in experiment [6] it was 29.9 µM. Besides, the TGI in experiment [7] was 33.7 µM; in experiment [8] it was 32.3 µM; in [9], 30.4 µM; in [10] it was 55 µM; in experiment [11], 32.6 µM; in experiment [12] it was 30.3 µM.

`COc1nc(OC)nc(-c2cccc(F)c2)n1`: the TGI worked out at 40.2 µM in [1]; 31.2 µM in experiment [2]; 32 µM in experiment [3]; 18.6 µM in [4]; 39.6 µM in experiment [5]; 30.7 µM in [6]. In addition, the TGI was determined as 22 µM in [7]; 43.7 µM in experiment [8]; 30 µM in experiment [9]; 29.3 µM in experiment [10]; 63 µM in experiment [11]; 42.4 µM in experiment [12].

In the case of `COC1=CC(=O)c2c(O)c3c(c(O)c2C1=O)C[C@](C)(O)C[C@@H]3O`, the TGI in experiment [1] is more than 42.5 µM; in experiment [2], 2.59 µM; in experiment [3] it was 32.8 µM; in experiment [4], 23.6 µM; in experiment [5], 13.1 µM; in experiment [6], 5.28 µM. For the same molecule, the TGI came to 4.66 µM in experiment [7]; 10.1 µM in experiment [8]; 11.5 µM in [9]; 15.8 µM in experiment [10]; 46.7 µM in [11]; 12.4 µM in [12].

As for `CN(CCc1ccc(Cl)c(Cl)c1)CCN(C)CCN1CCCC1`, the TGI in experiment [1] was 39.7 µM; in experiment [2], 15 µM; in [3], 29.8 µM; in experiment [4] it was 35.5 µM; in [5], more than 100 µM; in [6], 5.04 µM. The TGI in experiment [7] turned out to be 3.74 µM; in [8], 20.1 µM; in experiment [9], 32.4 µM; in experiment [10], 38.4 µM; in experiment [11] it was 21.9 µM; in experiment [12], 20.9 µM.

Consider `COC(=O)C1(NC(=O)C(CC(=O)OC(C)(C)C)NC(=O)OC(C)(C)C)CC1` (configuration not stated) (Boc-[ξD](OtBu)-[Ac3c]-OMe), for which the TGI in [1], in [2], in experiment [3], in experiment [4], in experiment [5] and in [6] was more than 100 µM each time. The TGI in experiment [7], in experiment [8], in [9], in experiment [10], in [11] and in experiment [12] was more than 100 µM in each case.

`OC(CCN1CCN(CCOC(c2ccccc2)c2ccccc2)CC1)c1ccc(Br)cc1` (configuration not stated): the TGI in experiment [1] was found to be 23 µM; in [2], 24.4 µM; in experiment [3], 30.3 µM; in experiment [4] it was 23.5 µM; in [5], 38.6 µM; in experiment [6], 12.6 µM. The TGI came out at 22.8 µM in experiment [7]; 23.5 µM in experiment [8]; 29.8 µM in experiment [9]; 19.3 µM in experiment [10]; 22.8 µM in experiment [11]; 29.4 µM in experiment [12].

Consider `ONC1=Nc2ccccc2OCc2cc(Br)c(Br)cc2COc2ccccc2N=C1NO`, for which the TGI is 31.3 µM in experiment [1]; 42.1 µM in experiment [2]; more than 57.4 µM in experiment [3]; 47.2 µM in [4]; more than 52.6 µM in [5]; 56.6 µM in [6]. Besides, the TGI in [7] was 35.7 µM; in [8], 45.1 µM; in [9], more than 53.6 µM; in experiment [10], more than 44.4 µM; in experiment [11], more than 44.3 µM; in [12], 41.9 µM.

Consider `[N-]=[N+]=NC[C@H]1OCO[C@H](CN=[N+]=[N-])[C@H]2OCCOCCOc3ccccc3OCCOCCO[C@@H]21`, for which the TGI in experiment [1], in experiment [2], in [3], in experiment [4], in experiment [5] and in experiment [6] was more than 100 µM in each case. The TGI in experiment [7], in [8], in experiment [9], in experiment [10], in [11] and in experiment [12] was more than 100 µM in each case.
